Experimental data reported in patent publication US10751288B2, “Dry processed surface coated engineering excipients” (New Jersey Institute of Technology, priority 2016, dated 2020).
Like-named read-outs stand apart in the source and are kept apart here.

Key:
[1] = Conditioned bulk density, Freeman FT4 powder tester; format: physicochemical; settings: Example 20, APIs alone
Procedure: Unless otherwise noted, bulk density and flowability, i.e., flow function coefficient (FFC), as provided herein is obtained using a Freeman FT4 powder tester (Freeman Technologies Ltd., Worcestershire, UK), where the bulk density and the flow function coefficient (FFC) were defined as the ratio of consolidation stress to the unconfined yield stress. The FFC was evaluated from a shear test under the consolidation pressure of 3 kPa. Detailed procedures for both may be found in Freeman et al., Measuring the flow properties of consolidated, conditioned and aerated powders—A comparative study using a powder rheometer and a rotational shear cell. […]
Bulk density was measured through a standard FT4 testing procedure that first conditions the powder to yield very repeatable results for the bulk density as discussed in the detailed procedures of Freeman, et al. mentioned above. […] The conditioned bulk density was measured by loading the powder samples into the 25 ml split vessel above the minimum fill level. After a conditioning cycle was performed the vessel was split to remove the top portion of the powder; the density was determined from the mass of the remaining powder in the 25 ml vessel.
In addition to measuring the porosity of the tablets, the porosity of a powder sample, and its complement, packing fraction can be also determined as follows. […]

[2] = Particle size distribution by laser diffraction (Rodos/Helos); format: physicochemical; settings: for median particle size (D50): starting materials
Procedure: Unless noted otherwise, particle size distribution provided herein is volume based particle size distribution was measured by a laser diffraction particle analyzer (Rodos/Helos system, Sympatec, NJ). Size statistics in terms of d10, d50 and d90 are reported, which are the values of the particle diameter at 10%, 50% and 90% respectively in the cumulative volumetric particle size distribution. In the Rodos/Helos system, the Rodos device works by venturi principle to disperse the powder, and the Helos unit uses laser diffraction principles of Fraunhofer Enhanced Evaluation (FREE) and Mie Extended Evaluation (MIEE) theories of light scattering to determine the particle size. Size statistics of d10, d50 and d90 at dispersion pressure of 0.1 bar are reported utilizing the FREE theory, the details for which can be found in Han et al. “Passivation of high surface energy sites of milled ibuprofen crystals via dry coating,” Journal of Pharmaceutical Sciences, Vol. 102(7), 1-15 (2013) and Jallo et al. “Improvement of flow and bulk density of pharmaceutical powders using surface modification,” International Journal of Pharmaceutics, 423 213-225 (2012).

[3] = Flow function coefficient (FFC), FT4 shear test at 3 kPa; format: physicochemical; settings: Example 20, APIs alone
[4] = from Huang et al., 2015; cited from earlier work
[5] = from Huang et al., 2015; cited from earlier work; remark: listed apart in the source
[6] = True (apparent particle) density by helium pycnometer; format: physicochemical; settings: Table 1
Procedure: First, the apparent particle density, […]app, for each powder (also referred to as the gas pycnometric and true density of particles) was determined using a helium multipycnometer (Model MVP-6DC, Quantachrome instruments, FL, 33426, USA; repeated five time to get an average). After this is determined, the porosity of each tablet (ε) was calculated from the apparent particle density (ρapp) and the diameter (D), thickness (t) and weight (w) of the tablets using the following equation. All quantities are in SI units.

[7] = as-received commercial materials, Table 1

bulk density [1] | median particle size (D50) [2] | FFC [3] | True Density [6] | Particle Size D10 [2, 7] | Particle Size D50 [2, 7] | Particle Size D90 [2, 7] | Compound | bulk density [4] | FFC [5]
0.896 g/mL | 217 microns | 4.67 |  |  |  |  | O=C1O[C@H]([C@@H](O)CO)C(O)=C1O [Ascorbic Acid] |  | 
 | 58 microns |  |  |  |  |  | CC(C)Cc1ccc(C(C)C(=O)O)cc1 (centres unmarked) [Ibuprofen 50] |  | 
0.206 g/mL |  |  | 1.29 g/mL | 2 μm | 10 μm | 37 μm | CC(=O)Nc1ccc(O)cc1 [Micronized APAP, micronized acetaminophen] | about 0.2 g/mL | about 2
